Data as given in patent publication US12679839B2, “Cyclin-dependent kinase 7 (CDK7) non-covalent inhibitors” (JANSSEN PHARMACEUTICA NV, priority 2020, dated 2026).

How the values were obtained:
[1] = test system: RNA polymerase II Serine 5 phosphorylation (Rpb1 CTD), downstream substrate of CDK7; experiment: Imaging-based cellular RNA PolII Ser5 phosphorylation assay in A549 cells; assay type: cell-based, human; conditions: Homo sapiens, A549, 3 h, challenged with compound for 3 hours, read-out: pRNA polII Ser5 (A549) pIC50 (converted)
Summary of the method: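 A549 cells seeded 20 h in DMEM with 1% FBS, then exposed to compound for 3 h at 37 °C; fixed, methanol-permeabilized and immunostained for phospho-Rpb1 CTD Ser5, read by automated imaging. Signal normalized to DMSO (high) and 10 μM LDC4297 (low) controls; IC50 from four-parameter fit of % control vs concentration.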

[2] = biological target: T1, CDK7/Cyclin H/MAT-1 complex (Homo sapiens, UniProt P50613); experiment: Flint assay, end-point fluorescence (5 nM CDK7/Cyclin H/MAT-1 complex); assay type: biochemical; conditions: for IC50: read-out: CDK7 (5 nM) pIC50 (converted)
T1 construct: Human CDK7 (amino acids 1-346); His6 (N); TEV protease cleavage site (N); made in house; host or cells: baculovirus-SF9 insect cells
T1 sequence (P50613 whole entry, the tested form may be a part): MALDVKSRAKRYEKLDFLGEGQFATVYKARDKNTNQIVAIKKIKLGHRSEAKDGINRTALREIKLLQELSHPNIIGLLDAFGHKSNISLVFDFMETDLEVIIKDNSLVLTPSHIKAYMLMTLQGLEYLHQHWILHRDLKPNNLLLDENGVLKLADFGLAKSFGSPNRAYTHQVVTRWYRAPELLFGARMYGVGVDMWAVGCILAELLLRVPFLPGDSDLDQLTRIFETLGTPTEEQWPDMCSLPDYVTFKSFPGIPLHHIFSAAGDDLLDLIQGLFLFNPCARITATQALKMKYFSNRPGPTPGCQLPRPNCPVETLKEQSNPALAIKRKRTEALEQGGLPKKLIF
T1 sequence (P51946 whole entry partner, the tested form may be a part): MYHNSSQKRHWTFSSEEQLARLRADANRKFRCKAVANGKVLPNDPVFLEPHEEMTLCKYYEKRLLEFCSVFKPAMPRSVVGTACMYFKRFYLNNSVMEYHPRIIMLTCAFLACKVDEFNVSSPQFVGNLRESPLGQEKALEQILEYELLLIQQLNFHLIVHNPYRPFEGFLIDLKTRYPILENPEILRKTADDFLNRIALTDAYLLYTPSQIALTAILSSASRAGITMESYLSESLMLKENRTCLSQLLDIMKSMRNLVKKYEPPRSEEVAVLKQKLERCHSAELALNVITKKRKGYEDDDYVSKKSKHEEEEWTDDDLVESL
T1 sequence (P51948 whole entry partner, the tested form may be a part): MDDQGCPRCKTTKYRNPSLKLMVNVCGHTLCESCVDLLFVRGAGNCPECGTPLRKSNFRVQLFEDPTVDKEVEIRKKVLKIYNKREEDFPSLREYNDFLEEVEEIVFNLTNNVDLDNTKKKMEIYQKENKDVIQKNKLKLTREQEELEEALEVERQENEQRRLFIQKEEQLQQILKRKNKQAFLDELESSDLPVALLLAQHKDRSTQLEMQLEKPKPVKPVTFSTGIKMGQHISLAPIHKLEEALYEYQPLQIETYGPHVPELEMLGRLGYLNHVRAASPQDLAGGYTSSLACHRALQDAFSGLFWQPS
Summary of the method: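 Trimeric complex of His6-TEV-tagged human CDK7 (1-346), MAT1 (1-309) and cyclin H (1-323), co-expressed in Sf9 cells, at 5 nM final, with substrates and coupling reagents as in the absorbance assay; 24 h reaction. End-point NADH fluorescence decrease (ex 340/em 440 nm); % inhibition versus no-inhibitor and full-inhibition controls, IC50 from four-parameter Hill fit.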

SMILES	IC50 [1] [µM]	CDK7 (5 nM) pIC50 [2]	IC50 [2] [µM]
CN1CC[C@H](C(=O)N2Cc3nc(NC4CCOCC4)ncc3[C@@H]3C[C@@H]32)[C@@H](c2ccccc2)C1 [Compound 199]	~0.0589	8.27	
C[C@@H]1Cc2cnc(N[C@H](C)c3ccccc3)nc2CN1C(=O)[C@H]1CCN(C)C[C@@H]1c1ccccc1 [Compound 22]	~0.0141	8.19	
C[C@@H]1Cc2cnc(NC[C@@H]3CCCO3)nc2CN1C(=O)[C@H]1CCN(C)C[C@@H]1c1ccccc1 [Compound 67]	1.32		0.0166
CO[C@]1(C)CC[C@@H](Nc2ncc3c(n2)CN(C(=O)[C@H]2CCN(C)C[C@@H]2c2ccccc2)[C@H](C)C3)CC1 [Compound 10]	0.158	8.11	
C[C@@H]1Cc2cnc(N[C@@H]3CCOC(C)(C)C3)nc2CN1C(=O)[C@H]1CCN(C)C[C@@H]1c1ccccc1 (relative stereo) [Compound 40]	~0.0525		0.00724
CN1CC[C@H](C(=O)N2Cc3nc(NC4CCOCC4)ncc3C(C)(C)C2)[C@@H](c2ccccc2)C1 [Compound 193]	3.63	7.05	
C[C@@H]1Cc2cnc(N[C@@H](CO)c3ccccc3)nc2CN1C(=O)[C@H]1CCN(C)C[C@@H]1c1ccccc1 [Compound 71]	0.12	8.54	
Cc1cccc([C@H]2CN(C)CC[C@@H]2C(=O)N2Cc3nc(Nc4cnn(C)c4)ncc3C[C@H]2C)c1 (relative stereo) [Compound 126]	~0.00389		0.00372
Cc1ncc(CNc2ncc3c(n2)CN(C(=O)[C@H]2CCN(C)C[C@@H]2c2ccccc2)[C@H](C)C3)[nH]1 [Compound 52]	2.45	7.9	
C[C@@H]1Cc2cnc(N[C@H]3CCC(=O)N(C)C3)nc2CN1C(=O)[C@H]1CCN(C)C[C@@H]1c1ccccc1 (relative stereo) [Compound 7]	0.933		0.00447
C[C@H]1Cc2cnc(Nc3cnn(C)c3)cc2CN1C(=O)[C@H]1CCN(C)C[C@@H]1c1ccccc1 (relative stereo) [Compound 176]	0.38		0.00912
C[C@@H]1Cc2cnc(NC3CCC(OC(F)F)CC3)nc2CN1C(=O)[C@H]1CCN(C)C[C@@H]1c1ccccc1 (some centres unmarked) [Compound 69]	0.0589	8.57	
C[C@@H]1Cc2cnc(N[C@@H]3CCOC4(CCC4)C3)nc2CN1C(=O)[C@H]1CCN(C)C[C@@H]1c1ccccc1 (relative stereo) [Compound 8]	0.0692		0.00269
C[C@@H]1Cc2cnc(NCC3CCS(=O)(=O)C3)nc2CN1C(=O)[C@H]1CCN(C)C[C@@H]1c1ccccc1 (some centres unmarked) [Compound 49]	> 10	7.2	
C[C@@H]1Cc2cnc(N[C@H](C)c3ccn(C)n3)nc2CN1C(=O)[C@H]1CCN(C)C[C@@H]1c1ccccc1 (single isomer, unassigned) [Compound 54]	0.123		0.00513
CC(C)N1CC[C@H](C(=O)N2Cc3nc(NC4CCOCC4)ncc3C[C@H]2C)[C@@H](c2cccc(Cl)c2)C1 (single isomer, unassigned) [Compound 160]	0.135	8.58	
CC(C)n1ccc(CNc2ncc3c(n2)CN(C(=O)[C@H]2CCN(C)C[C@@H]2c2ccccc2)[C@H](C)C3)n1 [Compound 66]	~0.0282	8.56	
CC(C)N1CCN(C(=O)N2Cc3nc(NC4CCOCC4)ncc3C[C@H]2C)[C@@H](c2ccccc2)C1 [Compound 206]	0.234	8.19	
C[C@@H]1Cc2cnc(N[C@H](CO)c3ccccc3)nc2CN1C(=O)[C@H]1CCN(C)C[C@@H]1c1ccccc1 [Compound 72]	0.2	8.22	
